In paper PMC4645181, “Spontaneous membrane-translocating peptides: influence of peptide self-aggregation and cargo polarity” (Scientific Reports, 2015):
Where “and” joins values, the source holds several entries; their conditions need not be identical. Equal values may be shown once. Where a SMILES comes first, the peptide text is derived from it. The star is where a group is joined. X2 = CN(C)c1ccc2c(-c3ccc(N4C(=O)CC(*)C4=O)cc3C(=O)[O-])c3ccc(=[N+](C)C)cc-3oc2c1; X1 = CCOC(=O)c1cc2cc3c(cc2oc1=O)N(CC(=O)NCCN1C(=O)CC(*)C1=O)C(C)(C)CC3C

Tests used:
[1] = Critical Micelle Concentration by pyrene 1:3 ratio method; format: physicochemical; settings: water solutions, 25 °C, 5 × 10^−7 μM pyrene, excitation 335 nm, I1 373 nm / I3 385 nm, 0.5-100 μM peptide, center of Boltzmann sigmoid fit
Procedure: All the peptide solutions were always freshly prepared and dye-labeled peptides were quantified by UV-Vis absorbance. Unlabeled peptides were quantified by amino acidic digestion obtained by the mineralization of a known amount of peptide (5–50 μg) dissolved in 200–500 μl of HCl 6 M, with the following conditions: temperature: 170 °C; time: 20 minutes. Finally, derivatized amino acids were detected by RP-HPLC (Jupiter 4 μm Proteo 90 Å column (250 × 4.6 mm; Phenomenex) with these solvents: water:TFA 100:0.01 v/v (eluent A)/acetonitrile:water:TFA 95:5:0.01 v/v (eluent B), flux 1 ml/min, and their identity was confirmed by electrospray mass spectroscopy. CMC values of peptide and labeled-peptide systems were then determined by the pyrene 1:3 ratio method. Fluorescence emission spectra at 25 °C of unlabeled and labeled peptide water solutions containing 5 × 10^−7 μM pyrene were recorded using an excitation wavelength of 335 nm. The intensities I1 and I3 were measured at the wavelengths corresponding to the first and third vibronic bands of pyrene (373 nm, emission range: 368–378 nm, and 385 nm, emission range: 380–390 nm, respectively). According to literature, the plot of the pyrene 1:3 ratio index as a function of the concentration of the surfactant can be described by a decreasing sigmoid of the Boltzmann type and indicates the transition from the monomeric to the aggregated form of the peptide. Experimental raw data were fitted using the OriginPro8 software, and the center of the sigmoid is identified as the characteristic CMC.

CHO-K1 cells [2] = assay: WST-8 Cell Viability Assay; format: cell-based, Chinese Hamster
Procedure: Cytotoxicity of unlabeled peptides and dye-labeled peptides was evaluated by the WST-8 assay. CHO-K1 cell proliferation was evaluated by plating 5 × 10^3 cells per well in 96-well plates. After 24 hours in serum-containing DMEM-F12 medium, the cells were incubated with a serum-free DMEM-F12 solution of unlabeled or dye-labeled peptides for 2 hours at 37 °C. After the incubation, the medium was removed, cells were washed with PBS 1X and incubated for 2 hours at 37 °C with 100 μl of a 10%-solution of WST-8 dissolved in serum-containing DMEM-F12. Absorbance at 450 nm was measured using a multiplate reader (Microplate Reader, GloMax®-Discover and Explorer Systems, Promega). Cell viability was quantitatively determined by comparing peptide-treated cells with untreated cells (as a reference of 100% viability) and cells treated with dimethyl sulfoxide (DMSO) 20% v/v. Reported data represent the average of three independent experiments, in which three wells for each concentration were measured. Error bars represent the standard errors.

[3] = Dynamic Light Scattering of peptide aggregates; format: physicochemical; settings: water solutions at 100 μM (above CMC), 25 °C, scattering angle 90°, average of five consecutive measurements
Procedure: DLS measurements were performed at 25 °C in a 50-μL quartz cuvette on a Zetasizernano ZS DLS (Malvern Instrument) following the manufacturer’s instructions. Water solutions of labeled-peptide at 100 μM were analyzed with a single scattering angle of 90°. Each value reported is the average of five consecutive measurements.

CHO-K1 cells [4] = assay: Cell uptake / translocation by confocal fluorescence microscopy; format: cell-based, Chinese Hamster; settings: all concentrations tested (0.5-10 μM), serum-free medium, peptide from water stock, 20 min at 37 °C
Procedure: Homogeneous peptide solutions used for translocation experiments were always freshly prepared. Purified dye-labeled peptides were pre-dissolved in 100–200 μl of water and sonicated for 15 minutes at 25 °C. Then they were quantified by UV-Vis absorbance (concentration ranging between 100 and 200 μM; for ATTO 425 Maleimide: ε436(water) = 45000 cm^−1M^−1, for TAMRA: ε543(water) = 80000 cm^−1M^−1). An appropriate amount from this stock water-solution was diluted in 200–300 μl of serum-free DMEM F-12 growth medium and then administered to cells. Ionic strength was adjusted to physiological values adding the required amount of 10X PBS buffer.
Chinese Hamster Ovary (CHO-K1) and PgsA-745 cells were purchased from ATCC (reference numbers: CCL-61 and CRL-2242, respectively) and grown in DMEM F-12 medium supplemented with 10% of Fetal Bovine Serum (FBS) at 37 °C with 5% CO2, according to manufacturer’s instructions. […]
Confocal imaging experiments were performed with a Leica TCS SP5 SMD inverted confocal microscope (Leica Microsystems) interfaced with a diode laser (Picoquant) for excitation at 405 nm. […] All images and videos collected were analyzed by ImageJ software version 1.440 (NIH Image; http://rsbweb.nih.gov/ij/). […] RICS correlation function was calculated by the SimFCS software, developed at the Laboratory for Fluorescence Dynamics (www.lfd.uci.edu). […]

[5] = UV absorption of peptide in water after addition from DMSO stock (precipitation); format: physicochemical; settings: 2μM in water, added directly from DMSO stock, UV absorption versus addition from water solution; consistent with a precipitate
Procedure: Fig S5: UV absorption spectra of TP2 at 2μM concentration in water, measured upon addition of the peptide directly from DMSO stock solution (blue trace) or from a water solution (black trace). Only this latter procedure yields the expected absorption spectrum (indicated by the dashed black line). […] This in turn is consistent with the formation of a stabilized phase that is not diffusing in solution, but likely under the form of a precipitate.

| Compound | Critical Micelle Concentration (CMC) [1] | cell viability (CHO-K1 cells [2]; 20 µM) [%] | cell viability (CHO-K1 cells [2]; 30 µM) [%] | hydrodynamic radius (RH) from DLS [3] [nm] | uptake mechanism (confocal imaging) (CHO-K1 cells [4]) | peptide apparently lost upon direct addition from DMSO to water [5] [%] |
| --- | --- | --- | --- | --- | --- | --- |
| CN(C)c1ccc2c(-c3ccc(N4C(=O)C=CC4=O)cc3C(=O)[O-])c3ccc(N(C)C)cc3[o+]c2c1 [TAMRA, Tetramethylrhodamine-5-maleimide] | ~80 µM and 80 ± 14 µM | – | – | – | – | – |
| CCOC(=O)c1cc2cc3c(cc2oc1=O)N(CC(=O)NCCN1C(=O)CC(SC[C@H](NC(=O)CNC(=O)[C@H](CCCNC(=N)N)NC(=O)[C@H](CC(C)C)NC(=O)[C@H](CC(C)C)NC(=O)[C@H](CCCNC(=N)N)NC(=O)[C@H](CC(C)C)NC(=O)[C@H](Cc2ccc(O)cc2)NC(=O)[C@@H](NC(=O)[C@H](CC(C)C)NC(=O)[C@@H]2CCCN2)[C@@H](C)CC)C(=O)O)C1=O)C(C)(C)CC3C (stereo partly drawn) [TM9-ATTO 425] (H-PLIYLRLLRGC(X1)-OH) | – | 60 | 40 | – | – | – |
| CC[C@H](C)[C@H](NC(=O)[C@H](CC(C)C)NC(=O)[C@@H]1CCCN1)C(=O)N[C@@H](Cc1ccc(O)cc1)C(=O)N[C@@H](CC(C)C)C(=O)N[C@@H](CCCNC(=N)N)C(=O)N[C@@H](CC(C)C)C(=O)N[C@@H](CC(C)C)C(=O)N[C@@H](CCCNC(=N)N)C(=O)NCC(=O)N[C@@H](CSC1CC(=O)N(c2ccc(-c3c4ccc(=[N+](C)C)cc-4oc4cc(N(C)C)ccc34)c(C(=O)[O-])c2)C1=O)C(=O)O (stereo partly drawn) [TM9-TAMRA] (H-PLIYLRLLRGC(X2)-OH; N-terminus and C-terminus assumed) | 3.8 ± 0.5 µM | – | – | 135 ± 14 | only endocytosis is present | – |
| PLIYLRLLR-G-QF [TP2] | 1.0 ± 0.2 µM | – | – | 163 ± 6 | – | ~60 |
